The text below walks through data of US20140206608A1 (priority 2012, published 2014).

≈ marks a conversion by molar mass, not a printed value. Where two headings read alike, the source gives them in different places. *1 amine or outer side, *2 acyl side, *3 side chain or, on linkers, in order; H or OH if unused. Where a SMILES comes first, the peptide text is derived from it. Side-chain parts run from the residue outwards. [ ]: non-standard residue; d: D form. The star is where a group is joined. γGlu = O=C(O)[C@H](CCC(=O)[*:2])N[*:1]; Stearoyl = CCCCCCCCCCCCCCCCCC(=O)*; Aib = CC(C)(N)C(=O)O

Data set [1] addresses T1, human GLP-1 receptor (hGLP-1 R) (Homo sapiens, UniProt P43220).
T1 construct: expressed in transfected cells; host or cells: HEK-293
Kind of data set: cAMP response of HEK-293 cells stably expressing human GLP-1 receptor (HTRF). The class given is cell-based. The conditions noted are these: EC50 hGLP-1 R, Table 7; cAMP formation. How it is done: (§1) cAMP content of cells was determined using a kit from Cisbio Corp. (cat. no. 62AM4PEC) based on HTRF (Homogenous Time Resolved Fluorescence). For preparation, cells were split into T175 culture flasks and grown overnight to near confluency in medium (DMEM/10% FBS). Medium was then removed and cells washed with PBS lacking calcium and magnesium, followed by proteinase treatment with accutase (Sigma-Aldrich cat. no. A6964). Detached cells were washed and resuspended in assay buffer (1×HBSS; 20 mM HEPES, 0.1% BSA, 2 mM IBMX) and cellular density determined. They were then diluted to 400000 cells/ml and 25 μl-aliquots dispensed into the wells of 96-well plates. For measurement, 25 μl of test compound in assay buffer was added to the wells, followed by incubation for 30 minutes at room temperature.

In data set [2] the target is T2, human glucagon receptor (hGLUC R) (Homo sapiens, UniProt P47871).
T2 construct: expressed in transfected cells; host or cells: HEK-293
T2 sequence (P47871 26-477): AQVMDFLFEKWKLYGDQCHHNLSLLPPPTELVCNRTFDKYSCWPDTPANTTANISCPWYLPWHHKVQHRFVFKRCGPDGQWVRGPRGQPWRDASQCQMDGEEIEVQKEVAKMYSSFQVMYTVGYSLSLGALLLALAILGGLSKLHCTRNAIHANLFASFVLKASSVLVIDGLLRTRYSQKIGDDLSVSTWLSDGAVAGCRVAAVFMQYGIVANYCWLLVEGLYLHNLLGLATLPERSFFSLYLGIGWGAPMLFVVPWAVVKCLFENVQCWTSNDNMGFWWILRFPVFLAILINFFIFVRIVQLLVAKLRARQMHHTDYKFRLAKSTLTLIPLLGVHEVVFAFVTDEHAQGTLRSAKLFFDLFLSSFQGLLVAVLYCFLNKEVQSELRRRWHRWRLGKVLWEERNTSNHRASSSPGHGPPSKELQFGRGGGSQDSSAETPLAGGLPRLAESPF
The experiment in a line: cAMP response of HEK-293 cells stably expressing human glucagon receptor (HTRF). The conditions noted are these: EC50 hGLUC R, Table 7; cAMP formation. The class given is cell-based. The procedure: as §1
For orientation: Time-resolved FRET reads energy transfer from a long-lived donor to a nearby acceptor.

Data set [3] in a line: Solubility testing in buffer systems (HPLC-UV). The class given is physicochemical. Conditions: buffer system, target concentration 1.0 mg/mL.
The nature of data set [4]: Chemical stability in solution, 7 days at 25° C. (% remaining peptide). The class given is physicochemical. Conditions: % remaining peptide after 7 days at 25° C. The text has this:
The chemical stability is expressed as “% remaining peptide”.

Another data set has as its system trypsin. The experiment in a line: Enzymatic stability testing versus trypsin. It is filed as in vitro ADME. Conditions: human, human recombinant trypsin, pH 8.3; % of degradation after 120 min; 2 μM peptide, 37° C.; read-out: Lability versus enzymatic degradation, Trypsin. The procedure: The reaction was stopped by addition of ethanol. The samples were analyzed by LC-MS/MS. […] The metabolic lability is given as % of degradation.

Data set [5] relates to female diabetic dbdb-mice. The experiment in a line: 4 weeks of treatment on glucose, HbA1c and oral glucose tolerance in female diabetic dbdb-mice (method 4). It is filed as in vivo. The procedure:
8 week old, female diabetic dbdb-mice of mean non-fasted glucose value of 14.5 mmol/l and a body weight of 37-40 g were used. Mice were individually marked and were adapted to housing conditions for at least one week.
7 days prior to study start, baseline values for non-fasted glucose and HbA1c were determined, 5 days prior to study start, mice were assigned to groups and cages (5 mice per cage, 10 per group) according to their HbA1c values to ensure even distribution of lower and higher values between groups (stratification).
Mice were treated for 4 weeks, by once daily subcutaneous administration 3 hours prior to the dark phase (6 pm to 6 am). Blood samples from a tail tip incision were obtained for HbA1c on study day 21 and oral glucose tolerance was assessed in the 4th week. Oral glucose tolerance test was done in the morning without prior extra compound administration to majorly assess the effect of chronic treatment and less of acute compound administration. Mice were fasted for 4 hours prior to oral glucose administration (2 g/kg, t=0 min). Blood samples were drawn prior to glucose administration and at 15, 30, 60, 90, 120, and 180 min thereafter. Feed was returned after the last blood sampling. Results are represented as change from baseline, glucose in mmol/l and HbA1c in %.
Statistical analyses are performed with Everstat Version 6.0 based on SAS by 1-way-ANOVA, followed by Dunnett's post-hoc test against vehicle-control. Differences are considered statistically significant at the p<0.05 level.

Data set [6] concerns female NMRI-mice. The experiment in a line: Gastric emptying and intestinal passage in female NMRI-mice. It is filed as in vivo. The procedure:
Female NMRI-mice of a body weight between 20 and 30 g were used. Mice were adapted to housing conditions for at least one week.
Mice were overnight fasted, while water remained available all the time. On the study day, mice were weighed, single-caged and allowed access to 500 mg of feed for 30 min, while water was removed. At the end of the 30 min feeding period, remaining feed was removed and weighed. Then, the test compound/reference compound or its vehicle in the control group was administered subcutaneously. 60 min later, to allow the compound to reach relevant plasma exposure, a coloured, non-caloric bolus was instilled via gavage into the stomach. After another 30 min, the animals were sacrificed and the stomach and the small intestine prepared. The filled stomach was weighed, emptied, carefully cleaned and dried and reweighed. The stomach content, calculated as weight of filled subtracted by the weight of emptied stomach, indicated the degree of gastric emptying. The small intestine was straightened without force and measured in length. Then the distance from the gastric beginning of the gut to the tip of the farthest travelled intestinal content bolus was measured. The intestinal passage was given as ratio in percent of the latter distance and the total length of the small intestine.
Statistical analyses were performed with Everstat 6.0 by 1-way-ANOVA, followed by Dunnett's as post-hoc test. Dunnett's Test was applied to compare versus vehicle control. Differences were considered statistically significant at the p<0.05 level.
30 min later, the assessment of stomach contents and intestinal passage was done (FIG. 8).

Data set [7] relates to female NMRI-mice. The experiment in a line: Automated assessment of 22-hours feed intake in female NMRI-mice. The class given is in vivo. How it is done: Female NMRI-mice of a body weight between 20 and 30 g were used. Mice were adapted to housing conditions for at least one week and for at least one day single-caged in the assessment equipment, when basal data were recorded simultaneously. On the study day, test product was administered subcutaneously close to the lights-off phase (12 h lights off) and assessment of feed consumption was directly started afterwards. Assessment included continued monitoring over 22 hours, while data are processed as mean over every 30 min. Repetition of this procedure over several days was possible. Restriction of assessment to 22 hours was for practical reasons to allow for reweighing of animals, refilling of feed and water and drug administration between procedures. Results could be assessed as cumulated data over 22 hours or differentiated to 30 min intervals.
Statistical analyses were performed with Everstat 6.0 by two-way ANOVA on repeated measures and Dunnett's post-hoc analyses. Differences were considered statistically significant at the p<0.05 level.
Lights-off phase (dark phase) started 4 hours later.

Data set [8] can be described thus: in vivo. Conditions: mouse, plasma, sc, 1 mg/kg.
Description: Mice were dosed 1 mg/kg subcutaneously (s.c.). The mice were sacrificed and blood samples were collected after 0.25, 0.5, 1, 2, 4, 8, 16 and 24 hours post application. Plasma samples were analyzed after protein precipitation via liquid chromatography mass spectrometry (LC/MS). PK parameters and half-life were calculated using WinonLin Version 5.2.1 (non-compartment model).
Data set [9] in a line: in vivo. The conditions noted are these: female, Gottinger, minipig, plasma, sc, 0.1 mg/kg.
Description: Female Gottinger minipigs were dosed 0.1 mg/kg subcutaneously (s.c.). Blood samples were collected after 0.25, 0.5, 1, 2, 4, 8, 24, 32, 48, 56 and 72 hours post application. Plasma samples were analyzed after protein precipitation via liquid chromatography mass spectrometry (LC/MS). PK parameters and half-life were calculated using WinonLin Version 5.2.1 (non-compartment model).
The target in the next data set is neprilysin (Homo sapiens, UniProt P08473). Kind of data set: in vitro. Conditions: human recombinant neprilysin, pH 7.5.
Chain of neprilysin (P08473 whole entry): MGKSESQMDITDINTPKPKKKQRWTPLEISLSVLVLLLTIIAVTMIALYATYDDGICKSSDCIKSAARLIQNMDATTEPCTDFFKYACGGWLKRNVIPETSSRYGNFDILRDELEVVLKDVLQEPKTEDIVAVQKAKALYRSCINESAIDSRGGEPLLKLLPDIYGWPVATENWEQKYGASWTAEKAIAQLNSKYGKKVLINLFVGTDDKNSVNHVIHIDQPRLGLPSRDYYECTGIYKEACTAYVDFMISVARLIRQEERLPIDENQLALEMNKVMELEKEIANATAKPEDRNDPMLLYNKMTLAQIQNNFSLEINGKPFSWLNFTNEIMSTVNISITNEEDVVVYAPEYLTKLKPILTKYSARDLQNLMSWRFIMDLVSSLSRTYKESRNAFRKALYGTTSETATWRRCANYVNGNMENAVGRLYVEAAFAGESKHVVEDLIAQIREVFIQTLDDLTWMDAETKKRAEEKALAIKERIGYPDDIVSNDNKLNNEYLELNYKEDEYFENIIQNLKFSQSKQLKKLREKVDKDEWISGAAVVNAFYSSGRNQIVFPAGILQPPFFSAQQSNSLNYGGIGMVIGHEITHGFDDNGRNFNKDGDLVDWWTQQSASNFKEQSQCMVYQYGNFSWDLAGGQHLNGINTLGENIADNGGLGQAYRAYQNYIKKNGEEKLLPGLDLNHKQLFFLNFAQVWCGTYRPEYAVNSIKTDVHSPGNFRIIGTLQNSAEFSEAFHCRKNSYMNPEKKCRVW
[10] abbreviates: 10 μg/kg s.c. once daily, p<0.05.

T1 sequence (P43220 24-463): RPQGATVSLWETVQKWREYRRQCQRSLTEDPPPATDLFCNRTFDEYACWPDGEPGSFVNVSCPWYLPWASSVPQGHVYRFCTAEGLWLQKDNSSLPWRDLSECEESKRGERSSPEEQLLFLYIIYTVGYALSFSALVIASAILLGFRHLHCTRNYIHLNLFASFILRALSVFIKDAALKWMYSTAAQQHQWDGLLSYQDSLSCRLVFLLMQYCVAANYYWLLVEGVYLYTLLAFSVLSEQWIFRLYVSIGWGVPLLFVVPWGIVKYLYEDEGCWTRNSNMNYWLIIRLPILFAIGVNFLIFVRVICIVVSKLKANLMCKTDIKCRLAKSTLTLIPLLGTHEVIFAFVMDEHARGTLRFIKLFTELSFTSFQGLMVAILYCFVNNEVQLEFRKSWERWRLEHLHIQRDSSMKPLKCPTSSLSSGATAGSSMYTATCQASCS
Description for neprilysin: In the experiment, GLP-1 was used as a positive control. The incubation was started by addition of the enzyme fraction to the pre-warmed buffer solution. […] The reaction was stopped by addition of ethanol. The samples were analyzed by LC-MS/MS. The percentage of biotransformation was measured by extent of depletion of the test compound in mass spectrometry. Therefore the peak area of the MRM ion signal of the 0h time point (100%) versus the incubated time points was measured. The metabolic lability is given as % of degradation.

`CCCCCCCCCCCCCCCCCC(=O)N[C@@H](CCC(=O)NCCCC[C@H](NC(=O)[C@H](CCC(N)=O)NC(=O)[C@@H](NC(=O)[C@H](CO)NC(=O)[C@H](CC(C)C)NC(=O)[C@H](CC(=O)O)NC(=O)[C@H](CO)NC(=O)[C@@H](NC(=O)[C@H](Cc1ccccc1)NC(=O)[C@@H](NC(=O)CNC(=O)[C@H](CCC(=O)O)NC(=O)C(C)(C)NC(=O)[C@@H](N)Cc1ccc(O)cc1)[C@@H](C)O)[C@@H](C)O)[C@@H](C)CC)C(=O)N[C@@H](CCC(=O)O)C(=O)N[C@@H](CCC(=O)O)C(=O)N[C@@H](CCC(=O)O)C(=O)N[C@@H](C)C(=O)N[C@H](C(=O)N[C@@H](CCCNC(=N)N)C(=O)N[C@@H](CC(C)C)C(=O)N[C@@H](Cc1ccccc1)C(=O)N[C@H](C(=O)N[C@@H](CCC(=O)O)C(=O)N[C@@H](Cc1c[nH]c2ccccc12)C(=O)N[C@@H](CC(C)C)C(=O)N[C@@H](CCCCN)C(=O)N[C@@H](C)C(=O)NCC(=O)NCC(=O)N1CCC[C@H]1C(=O)N[C@@H](CO)C(=O)N[C@@H](CO)C(=O)NCC(=O)N[C@@H](C)C(=O)N1CCC[C@H]1C(=O)N1CCC[C@H]1C(=O)N1CCC[C@H]1C(=O)N[C@@H](CO)C(N)=O)[C@@H](C)CC)C(C)C)C(=O)O` [SEQ ID NO: 10, Y-Aib-E-G-T-F-T-S-D-L-S-I-Q-K(γE-x70)-EEEAVRLFIEWLKAGGPSSGAPPPS-NH2] (H-Y[Aib]EGTFTSDLSIQK([γGlu-Stearoyl])EEEAVRLFIEWLKAGGPSSGAPPPS-NH2): the EC50 (usually the concentration at which the effect is half-maximal) in data set [1] was 0.0125 nM; in [2], greater than 1000 nM. The solubility (commonly the dissolved amount per volume that the medium holds) at 2 h in data set [3] (pH 4.5, read-out: Solubility (pH 4.5)) was 120 µg/mL (≈ 26.3 µM); in [3] (pH 7.4, read-out: Solubility (pH 7.4)), greater than 1000 µg/mL. In data set [4] (pH 4.5), the “Stability (pH 4.5)” value turned out to be 99.0%. For the same compound, in data set [4] (pH 7.4), the “Stability (pH 7.4)” value is given as 97.0%. For the same compound, the metabolised at 2 h, 2 μM in the data set on trypsin is 33%; at neprilysin, 0%. In addition, in data set [5] (10 μg/kg s.c. once daily), the “non-fasted glucose compared to vehicle control” value is reported as “tended to reduce non-fasted glucose”. Further, in [5] (setting [10]), the “HbA1c compared to vehicle control” value is on record as “prevented an increase of HbA1c in a statistical significant manner”. In addition, in [5] (setting [10]), the “reduction of AUC under the glucose curve compared to vehicle control” value is recorded as “reached statistical significance”. Moreover, the oral glucose tolerance entry in [5] (3 and 10 μg/kg s.c. once daily) is recorded as “improved oral glucose tolerance”. In addition, the “increase of remaining gastric contents” value in the data set on female NMRI-mice [6] (1 μg/kg s.c.) worked out at 1%; with female NMRI-mice [6] (10 μg/kg s.c.) it was 28%; with female NMRI-mice [6] (100 μg/kg s.c.) it was 68%. Also, the “reduction of intestinal passage” value with female NMRI-mice [6] (1 μg/kg s.c.) is 28%; in the data set with female NMRI-mice [6] (10 μg/kg s.c.), 58%; with female NMRI-mice [6] (100 μg/kg s.c.), 64%. Also, the “reduction of feed intake after 22 hours” value in the data set with female NMRI-mice [7] (3 μg/kg s.c., not significant, p=0.78) is 19%; in the data set on female NMRI-mice [7] (10 μg/kg s.c., p=0.049), 34%. Also, the Cmax (commonly the peak of the concentration-time curve) in the data set “in vivo [8]” was found to be 5740 ng/mL; in the data set “in vivo [9]” it was 588 ng/mL. The values for the half-life in the data set “in vivo [8]” and in “in vivo [9]” were 4.3 h and 20.1 h, respectively.
